Assay results published in the supplement of paper PMC6045584.
± gives the standard deviation of the averaged measurements.

Columns and labels:
AZD4547 = compound: COc1cc(CCc2cc(NC(=O)c3ccc(N4CC(C)NC(C)C4)cc3)n[nH]2)cc(OC)c1 [AZD4547]; experiment: surviving fraction relative to DMSO-only wells; higher = less growth inhibition; conditions: exposure time: 5 days
Method in brief: (§1)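 Continuous five-day exposure to inhibitors at 0.5, 1, 5, 10, 50, 100, 500 and 1000 nM started 24 hours after log-phase tumour cell lines were seeded at 250–500 cells per well in 384-well plates. Luminescence was read after 10 minutes at room temperature. Viability is given as surviving fraction, meaning CellTiter-Glo luminescence normalised to the median of DMSO-only wells.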

METHOTREXATE = compound: CN(Cc1cnc2nc(N)nc(N)c2n1)c1ccc(C(=O)N[C@@H](CCC(=O)O)C(=O)O)cc1 [METHOTREXATE]; experiment: as above; conditions: exposure time: 5 days
Method in brief: as §1

| Test System | surviving fraction (AZD4547; 0.5 nM) | surviving fraction (AZD4547; 1 nM) | surviving fraction (AZD4547; 5 nM) | surviving fraction (AZD4547; 10 nM) | surviving fraction (AZD4547; 50 nM) | surviving fraction (AZD4547; 100 nM) | surviving fraction (AZD4547; 500 nM) | surviving fraction (AZD4547; 1000 nM) | surviving fraction (METHOTREXATE; 0.5 nM) | surviving fraction (METHOTREXATE; 1 nM) | surviving fraction (METHOTREXATE; 5 nM) | surviving fraction (METHOTREXATE; 10 nM) | surviving fraction (METHOTREXATE; 50 nM) | surviving fraction (METHOTREXATE; 100 nM) | surviving fraction (METHOTREXATE; 500 nM) | surviving fraction (METHOTREXATE; 1000 nM) |
| --- | --- | --- | --- | --- | --- | --- | --- | --- | --- | --- | --- | --- | --- | --- | --- | --- |
| HCC1395 BREAST | 0.849 ± 0.077 | 0.904 ± 0.088 | 0.849 ± 0.07 | 0.748 ± 0.11 | 0.79 ± 0.072 | 0.804 ± 0.1 | 0.698 ± 0.06 | 0.762 ± 0.19 | 1.18 ± 0.047 | 1.08 ± 0.073 | 1.17 ± 0.035 | 1.17 ± 0.1 | 1.12 ± 0.058 | 1.26 ± 0.026 | 1.03 ± 0.16 | 1.09 ± 0.062 |
| HCC1806 BREAST | 1.04 ± 0.14 | 1.08 ± 0.048 | 1.12 ± 0.063 | 1.14 ± 0.06 | 1.16 ± 0.11 | 1.13 ± 0.05 | 0.996 ± 0.078 | 1 ± 0.17 | 1.13 ± 0.11 | 1.11 ± 0.098 | 0.503 ± 0.063 | 0.445 ± 0.03 | 0.263 ± 0.01 | 0.227 ± 0.017 | 0.244 ± 0.0074 | 0.254 ± 0.016 |
| HCC1954 BREAST | 0.677 ± 0.04 | 0.711 ± 0.052 | 0.84 ± 0.087 | 1.01 ± 0.12 | 0.956 ± 0.023 | 0.887 ± 0.069 | 1.0088 ± 0.00035 | 1 ± 0.1 | 1.26 ± 0.04 | 1.16 ± 0.024 | 1.42 ± 0.14 | 1.3 ± 0.18 | 1.17 ± 0.11 | 0.997 ± 0.16 | 1.09 ± 0.13 | 0.849 ± 0.18 |
| HCT15 LARGE INTESTINE | 1.03 ± 0.026 | 1.07 ± 0.029 | 1.03 ± 0.042 | 1.07 ± 0.048 | 1.03 ± 0.042 | 1.08 ± 0.033 | 1.1 ± 0.044 | 1.1 ± 0.041 | 1.08 ± 0.046 | 1.05 ± 0.13 | 1.04 ± 0.13 | 0.749 ± 0.18 | 0.138 ± 0.014 | 0.102 ± 0.017 | 0.137 ± 0.019 | 0.134 ± 0.015 |
| HELA CERVIX | 1.04 ± 0.023 | 1.09 ± 0.035 | 1.07 ± 0.036 | 1.1 ± 0.032 | 1.08 ± 0.013 | 1.07 ± 0.03 | 1.08 ± 0.092 | 1.11 ± 0.13 | 1.06 ± 0.044 | 1.027 ± 0.0067 | 1.03 ± 0.039 | 1.02 ± 0.018 | 0.712 ± 0.085 | 0.332 ± 0.018 | 0.282 ± 0.012 | 0.288 ± 0.016 |
| HMLE3 BREAST | 0.986 ± 0.082 | 0.959 ± 0.04 | 0.882 ± 0.05 | 0.79 ± 0.025 | 0.57 ± 0.046 | 0.455 ± 0.053 | 0.418 ± 0.064 | 0.379 ± 0.032 | 0.98 ± 0.057 | 1.03 ± 0.13 | 1.07 ± 0.046 | 0.985 ± 0.037 | 0.575 ± 0.051 | 0.639 ± 0.062 | 0.522 ± 0.026 | 0.513 ± 0.037 |
| HMT3552 BREAST | 1.06 | 1.09 | 1.01 | 0.895 | 1.03 | 1.04 | 0.852 | 0.888 | 1.07 ± 0.063 | 1 ± 0.036 | 1.04 ± 0.069 | 1.03 ± 0.051 | 0.604 ± 0.06 | 0.282 ± 0.02 | 0.182 ± 0.0061 | 0.171 ± 0.008 |
| HOS BONE | 1 ± 0.027 | 1.04 ± 0.011 | 1.04 ± 0.037 | 1.1 ± 0.042 | 1 ± 0.019 | 0.987 ± 0.021 | 0.9247 ± 0.0092 | 0.802 ± 0.039 | 1.02 ± 0.036 | 0.999 ± 0.024 | 0.252 ± 0.018 | 0.223 ± 0.0095 | 0.232 ± 0.013 | 0.226 ± 0.0083 | 0.218 ± 0.01 | 0.214 ± 0.018 |
| HOSMNG BONE | 1.01 ± 0.088 | 0.996 ± 0.12 | 1.02 ± 0.1 | 1.03 ± 0.035 | 0.964 ± 0.12 | 0.9967 ± 0.0029 | 0.945 ± 0.087 | 1.04 ± 0.097 | 0.844 ± 0.14 | 0.864 ± 0.049 | 0.84 ± 0.047 | 0.248 ± 0.019 | 0.212 ± 0.016 | 0.316 ± 0.011 | 0.341 ± 0.015 | 0.353 ± 0.0087 |
| HS578T BREAST | 0.986 ± 0.061 | 1.05 ± 0.06 | 1.04 ± 0.025 | 1.01 ± 0.04 | 0.966 ± 0.056 | 0.94 ± 0.036 | 0.871 ± 0.03 | 0.911 ± 0.039 | 1.04 ± 0.19 | 1.17 ± 0.17 | 1.19 ± 0.2 | 1.15 ± 0.058 | 0.518 ± 0.069 | 0.438 ± 0.012 | 0.375 ± 0.011 | 0.418 ± 0.011 |
